Measured values published in patent publication EP0221719A2, “Novel cephalosporin derivatives, processes for their preparation and pharmaceutical compositions containing them” (BIOGAL GYOGYSZERGYAR, priority 1985, dated 1987).
≈ marks a conversion by molar mass, not a printed value. Structures can show the parent of a compound that is named as a salt. Where two headings read alike, the source gives them in different places.

What was measured:
Pseudomonas aeruginosa = assay: microbe, parasite or virus in culture; conditions: 24 h
[1] = tested on: Salmonella typhi murium and Proteus vulgaris; assay: In vivo effectivity in artificially infected mice (protection test); conditions: for living animal / group 1st day / living animal / group 3rd day: groups of 5 infected mice; for ED50: sc
Escherichia coli K12 = assay: MIC determination (antibacterial activity in vitro); format: cell-based; conditions: after 24 hours
Staphylococcus aureus 53 = assay: as above; format: cell-based; conditions: after 24 hours
[2] = tested on: Bacillus subtilis ATCC 6633; assay: as above; format: cell-based; conditions: ATCC6633, after 24 hours
[3] = tested on: Escherichia coli poliresistens; assay: as above; format: cell-based; conditions: 24 h
[4] = tested on: Staphylococcus aureus Smith; assay: as above; format: cell-based; conditions: after 24 hours
[5] = tested on: Pseudomonas pyocyanea NTCT 10.490; assay: as above; format: cell-based; conditions: Pseudomonas aeruginosa, NTCT10.490, after 24 hours
Description: The MIC values expressed in mcg./mi. of SZMFO 110 after 24 hours are contained in Table 1.

[6] = tested on: Streptococcus haemolyticus A118; assay: as above; format: cell-based; conditions: after 24 hours
[7] = tested on: Clostridium perfringens Cp.; assay: microbe, parasite or virus in culture; format: cell-based; conditions: 24 h
Escherichia coli R-222 = assay: MIC determination (antibacterial activity in vitro); format: cell-based; conditions: R222, 24 h
Escherichia coli 6R = assay: as above; format: cell-based; conditions: 24 h
Escherichia coli R-15 = assay: as above; format: cell-based; conditions: R15, after 24 hours
[8] = tested on: Klebsiella sp. ATCC 10031; assay: as above; format: cell-based; conditions: ATCC10031, after 24 hours
[9] = tested on: Streptococcus haemolyticus Robb; assay: as above; format: cell-based; conditions: after 24 hours
[10] = tested on: Streptococcus haemolyticus Pneumo; assay: as above; format: cell-based; conditions: after 24 hours
[11] = tested on: Staphylococcus aureus 1110; assay: as above; format: cell-based; conditions: after 24 hours
[12] = tested on: Staphylococcus epidermidis A CC I-12228; assay: as above; format: cell-based; conditions: ACCI12228, after 24 hours
Salmonella typhi murium = assay: as above; format: cell-based; conditions: Salmonella enterica, 24 h
Proteus vulgaris XL = assay: as above; format: cell-based; conditions: after 24 hours
Shigella sonnei = assay: as above; format: cell-based; conditions: after 24 hours

Compound: CO/N=C(\C(=O)N[C@@H]1C(=O)N2C(C(=O)O)=CCS[C@H]12)c1csc(N)n1 [Ceftizoxime, (6R,7R)-7-/2-(2-amino-4-thiazolyl)glyoxylamido/-8--oxo-5-thia-l-azabicyclo/4.2.0/oct-2-ene-2-carboxylic acid 7^2-(Z)-(0-methyloxime)]
- MIC (Pseudomonas aeruginosa): 64 µg/mL (≈ 167 µM)

Compound: CO/N=C(\C(=O)N[C@@H]1C(=O)N2C(C(=O)O)=C(COC(C)=O)CS[C@H]12)c1csc(N)n1 [Cefotaxime, 7-[2-(2-amino-4-thiazolyl)-2-methoxy-iminoacetamido]-cephalosporanic acid]
- MIC (Pseudomonas aeruginosa): 32 µg/mL (≈ 70.3 µM)

Compound: CCN1CCN(C(=O)N[C@@H](C(=O)N[C@@H]2C(=O)N3C(C(=O)O)=C(CSc4nnnn4C)CS[C@H]23)c2ccc(O)cc2)C(=O)C1=O [Cefoperazone, 7-[D-(-)-α-(4-ethyl-2,3-dioxo-1-piperazinecarboxamido)-α-(4-hydroxyphenyl)-acetamido]-3-[[(1-methyl-1H-tetranol-5-yl)thio]methyl]-ceph-3-em-4-carboxylic acid, reference compound]
- MIC (Pseudomonas aeruginosa): 8 µg/mL (≈ 12.4 µM)
- living animal / group 1st day ([1]; 0.2 mg./kg. subcutaneously): 1
- living animal / group 3rd day ([1]; 0.2 mg./kg. subcutaneously): 1
- living animal / group 1st day ([1]; 1 mg./kg. subcutaneously): 4
- living animal / group 3rd day ([1]; 1 mg./kg. subcutaneously): 1
- living animal / group 1st day ([1]; 5 mg./kg. subcutaneously): 5
- living animal / group 3rd day ([1]; 5 mg./kg. subcutaneously): 3
- living animal / group 1st day ([1]; 25 mg./kg. subcutaneously): 4
- living animal / group 3rd day ([1]; 25 mg./kg. subcutaneously): 4
- living animal / group 1st day ([1]; 100 mg./kg. subcutaneously): 5
- living animal / group 3rd day ([1]; 100 mg./kg. subcutaneously): 4
- ED50 ([1]; 24 h, read-out: ED50 1st day): 0.44 mg/kg
- ED50 ([1]; 72 h, read-out: ED50 3rd day): 3.7 mg/kg

Compound: CC(C)(ON=C(C(=O)NC1C(=O)N2C(C(=O)[O-])=C(C[n+]3ccccc3)CSC12)c1csc(N)n1)C(=O)O [Ceftazimide, 1-//(6R,7R)-7-/2-(2-amino-4-thiazolyl)glyoxylamido/--2-carboxy-8-oxo-5-thia-1-azabicyclo/4.2.0/oct-2-ene--3-yl/methyl/pyridinium hydroxide inner salt 7^2-(Z)-/0-(1-carboxy-1-methylethyl)oxime/]
- MIC (Pseudomonas aeruginosa): 4 µg/mL

Compound: CO/N=C(\C(=O)N[C@@H]1C(=O)N2C(C(=O)O)=C(CSc3nnnn3C)CS[C@H]12)c1csc(N)n1 [Cefmenoxime, (6R,7R)-7-/2-(2-amino-4-thiazolyl)glyoxylamido/-3-//(1-methyl-1H-tetrazol-5-yl)thio/methyl/-8-oxo-5-thia--1-azabicyclo/4.2.0/oct-2-ene-2-carboxylic acid 7^2-(Z)-(O-methyloxime)]
- MIC (Pseudomonas aeruginosa): 64 µg/mL (≈ 125 µM)

Compound: CON=C(C(=O)NC1C(=O)N2C(C(=O)O)=C(CSc3nnc(S)s3)CSC12)c1csc(N)n1 (stereo not drawn) [SZMFO 110, 7β-[2-(2-aminothiazol-4-yl)-(Z)-2-methoxyimino-acetamido]-3-[(2-mercapto-1.3.4-thiadiazol-5-yl)thiomethyl]-ceph-3-em-4-carboxylic acid]
- MIC (Escherichia coli K12): 0.03 µg/mL (≈ 0.055 µM)
- MIC (Staphylococcus aureus 53): 1.6 µg/mL (≈ 2.93 µM)
- MIC (Pseudomonas aeruginosa): 0.31 µg/mL (≈ 0.568 µM)
- MIC [2]: 0.08 µg/mL (≈ 0.147 µM)
- MIC [3]: 0.16 µg/mL (≈ 0.293 µM)
- MIC [4]: 1.25 µg/mL (≈ 2.29 µM)
- MIC [5]: 0.31 µg/mL (≈ 0.568 µM)
- MIC [6]: 0.03 µg/mL (≈ 0.055 µM)
- MIC [7]: 0.004 µg/mL (≈ 0.00733 µM)
- MIC (Escherichia coli R-222): 0.03 µg/mL (≈ 0.055 µM)
- MIC (Escherichia coli 6R): 0.25 µg/mL (≈ 0.458 µM)
- MIC (Escherichia coli R-15): 0.16 µg/mL (≈ 0.293 µM)
- MIC [8]: 0.007 µg/mL (≈ 0.0128 µM)
- MIC [9]: 0.03 µg/mL (≈ 0.055 µM)
- MIC [10]: 0.03 µg/mL (≈ 0.055 µM)
- MIC [11]: 6.2 µg/mL (≈ 11.4 µM)
- living animal / group 1st day ([1]; 0.2 mg./kg. subcutaneously): 0
- living animal / group 3rd day ([1]; 0.2 mg./kg. subcutaneously): 0
- living animal / group 1st day ([1]; 1 mg./kg. subcutaneously): 4
- living animal / group 3rd day ([1]; 1 mg./kg. subcutaneously): 4
- living animal / group 1st day ([1]; 5 mg./kg. subcutaneously): 5
- living animal / group 3rd day ([1]; 5 mg./kg. subcutaneously): 4
- living animal / group 1st day ([1]; 25 mg./kg. subcutaneously): 5
- living animal / group 3rd day ([1]; 25 mg./kg. subcutaneously): 5
- living animal / group 1st day ([1]; 100 mg./kg. subcutaneously): 5
- living animal / group 3rd day ([1]; 100 mg./kg. subcutaneously): 4
- ED50 ([1]; 24 h, read-out: ED50 1st day): 0.62 mg/kg
- ED50 ([1]; 72 h, read-out: ED50 3rd day): 0.62 mg/kg
- MIC [12]: 0.6 µg/mL (≈ 1.1 µM)
- MIC (Salmonella typhi murium): 0.06 µg/mL (≈ 0.11 µM)
- MIC (Proteus vulgaris XL): 0.007 µg/mL (≈ 0.0128 µM)
- MIC (Shigella sonnei): 0.06 µg/mL (≈ 0.11 µM)
